Reference: PubChem BioAssay AID2060907 (Molecular Pharmacology Branch, DTP, NCI, 2025)

Test system: 388556-164-R-J1-PDC complex spheroid viability
Assay: Anticancer human tumor 388556-164-R-J1-PDC patient-derived colon adenocarcinoma cell line growth inhibition [RAS]
Conditions: for IC50: curve of first compound; for viability, T/C: stronger effect = lower value; active = viability on the fitted dose curve at most 10% of control; inactive = the rest
How it was run: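 Agents were tested in combination matrices in half-log decrements from a top concentration at or near clinical Cmax (10 microM if undetermined). Targets were multi-cell spheroids of tumour lines plus HUVEC and MSC stromal cells.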
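Also: spheroids exposed to compound for 7 days before readout.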
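For viability, T/C in this document: 100% = DMSO vehicle control luminescence.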

C=CC(=O)Nc1cc(Nc2nccc(-c3cn(C)c4ccccc34)n2)c(OC)cc1N(C)CCN(C)C + CCn1c(-c2cc(N3CCN(C)CC3)cnc2C(C)OC)c2c3cc(ccc31)-c1csc(n1)CC(NC(=O)C1CC1C)C(=O)N1CCCC(N1)C(=O)OCC(C)(C)C2
< 3.16 nM: IC50 (second compound 0.0949 µM) | IC50 (second compound 0.3 µM)
416 nM: IC50 (second compound 0.00949 µM)
inactive: viability, T/C (second compound 0.000949 µM, first compound 0.00316 µM) 92.8% | viability, T/C (second compound 0.000949 µM, first compound 0.01 µM) 92.1% | viability, T/C (second compound 0.000949 µM, first compound 0.0316 µM) 93.5% | viability, T/C (second compound 0.000949 µM, first compound 0.1 µM) 79.8% | viability, T/C (second compound 0.000949 µM, first compound 0.316 µM) 60.4% | viability, T/C (second compound 0.000949 µM, first compound 1 µM) 46.4% | viability, T/C (second compound 0.003 µM, first compound 0.00316 µM) 91.7% | viability, T/C (second compound 0.003 µM, first compound 0.01 µM) 90.3% | viability, T/C (second compound 0.003 µM, first compound 0.0316 µM) 75.3% | viability, T/C (second compound 0.003 µM, first compound 0.1 µM) 74% | viability, T/C (second compound 0.003 µM, first compound 0.316 µM) 56.4% | viability, T/C (second compound 0.003 µM, first compound 1 µM) 38.1% | viability, T/C (second compound 0.00949 µM, first compound 0.00316 µM) 79.2% | viability, T/C (second compound 0.00949 µM, first compound 0.01 µM) 78.9% | viability, T/C (second compound 0.00949 µM, first compound 0.0316 µM) 65.8% | viability, T/C (second compound 0.00949 µM, first compound 0.1 µM) 66.4% | viability, T/C (second compound 0.00949 µM, first compound 0.316 µM) 60.5% | viability, T/C (second compound 0.00949 µM, first compound 1 µM) 28.3% | viability, T/C (second compound 0.03 µM, first compound 0.00316 µM) 62.1% | viability, T/C (second compound 0.03 µM, first compound 0.01 µM) 50.8% | viability, T/C (second compound 0.03 µM, first compound 0.0316 µM) 54.9% | viability, T/C (second compound 0.03 µM, first compound 0.1 µM) 45.8% | viability, T/C (second compound 0.03 µM, first compound 0.316 µM) 36.1% | viability, T/C (second compound 0.03 µM, first compound 1 µM) 27.3% | viability, T/C (second compound 0.0949 µM, first compound 0.00316 µM) 39.4% | viability, T/C (second compound 0.0949 µM, first compound 0.01 µM) 42.7% | viability, T/C (second compound 0.0949 µM, first compound 0.0316 µM) 46.8% | viability, T/C (second compound 0.0949 µM, first compound 0.1 µM) 33.1% | viability, T/C (second compound 0.0949 µM, first compound 0.316 µM) 28.2% | viability, T/C (second compound 0.0949 µM, first compound 1 µM) 22.8% | viability, T/C (second compound 0.3 µM, first compound 0.00316 µM) 32.2% | viability, T/C (second compound 0.3 µM, first compound 0.01 µM) 28.5% | viability, T/C (second compound 0.3 µM, first compound 0.0316 µM) 30.8% | viability, T/C (second compound 0.3 µM, first compound 0.1 µM) 25.1% | viability, T/C (second compound 0.3 µM, first compound 0.316 µM) 25.7% | viability, T/C (second compound 0.3 µM, first compound 1 µM) 24%
480 nM: IC50 (second compound 0.003 µM)
745 nM: IC50 (second compound 0.000949 µM)
41.8 nM: IC50 (second compound 0.03 µM)

C[C@@H](NC(=O)c1ncnc(N)c1Cl)c1ncc(C(=O)Nc2cc(C(F)(F)F)c(Cl)cn2)s1 + C#Cc1c(F)ccc2cc(O)cc(-c3ncc4c(N5CC6CCC(C5)N6)nc(OCC56CCCN5CC(F)C6)nc4c3F)c12
inactive: viability, T/C (second compound 0.0316 µM, first compound 0.0316 µM) 112% | viability, T/C (second compound 0.0316 µM, first compound 0.1 µM) 124% | viability, T/C (second compound 0.0316 µM, first compound 0.316 µM) 117% | viability, T/C (second compound 0.0316 µM, first compound 1 µM) 116% | viability, T/C (second compound 0.0316 µM, first compound 3.16 µM) 116% | viability, T/C (second compound 0.0316 µM, first compound 10 µM) 111% | viability, T/C (second compound 0.1 µM, first compound 0.0316 µM) 114% | viability, T/C (second compound 0.1 µM, first compound 0.1 µM) 112% | viability, T/C (second compound 0.1 µM, first compound 0.316 µM) 120% | viability, T/C (second compound 0.1 µM, first compound 1 µM) 113% | viability, T/C (second compound 0.1 µM, first compound 3.16 µM) 122% | viability, T/C (second compound 0.1 µM, first compound 10 µM) 108% | viability, T/C (second compound 0.316 µM, first compound 0.0316 µM) 113% | viability, T/C (second compound 0.316 µM, first compound 0.1 µM) 115% | viability, T/C (second compound 0.316 µM, first compound 0.316 µM) 101% | viability, T/C (second compound 0.316 µM, first compound 1 µM) 117% | viability, T/C (second compound 0.316 µM, first compound 3.16 µM) 112% | viability, T/C (second compound 0.316 µM, first compound 10 µM) 77.1% | viability, T/C (second compound 1 µM, first compound 0.0316 µM) 105% | viability, T/C (second compound 1 µM, first compound 0.1 µM) 104% | viability, T/C (second compound 1 µM, first compound 0.316 µM) 98.2% | viability, T/C (second compound 1 µM, first compound 1 µM) 111% | viability, T/C (second compound 1 µM, first compound 3.16 µM) 108% | viability, T/C (second compound 1 µM, first compound 10 µM) 79.2% | viability, T/C (second compound 3.16 µM, first compound 0.0316 µM) 103% | viability, T/C (second compound 3.16 µM, first compound 0.1 µM) 84% | viability, T/C (second compound 3.16 µM, first compound 0.316 µM) 84% | viability, T/C (second compound 3.16 µM, first compound 1 µM) 105% | viability, T/C (second compound 3.16 µM, first compound 3.16 µM) 96.5% | viability, T/C (second compound 3.16 µM, first compound 10 µM) 70% | viability, T/C (second compound 10 µM, first compound 0.0316 µM) 74% | viability, T/C (second compound 10 µM, first compound 0.1 µM) 80.4% | viability, T/C (second compound 10 µM, first compound 0.316 µM) 72.8% | viability, T/C (second compound 10 µM, first compound 1 µM) 96% | viability, T/C (second compound 10 µM, first compound 3.16 µM) 63.9% | viability, T/C (second compound 10 µM, first compound 10 µM) 74.2%
> 10000 nM: IC50 (second compound 0.0316 µM) | IC50 (second compound 0.1 µM) | IC50 (second compound 0.316 µM) | IC50 (second compound 1 µM) | IC50 (second compound 3.16 µM) | IC50 (second compound 10 µM)
